Experimental data: ChEMBL document CHEMBL1817541, “Synthesis and Evaluation of the α-D-/α-L-Rhamnosyl and Amicetosyl Digitoxigenin Oligomers as Anti-tumor Agents” (ACS Med Chem Lett, 2011)

Tests used:
Type in all cases: functional
NCI-H460 [1] = assay: Cytotoxicity against human NCI-H460 cell assessed as cell death at 10 nM after 12 hrs by Hoechst 33342/propidium iodide staining based fluorescence microscopy
NCI-H460 [2] = assay: Cytotoxicity against human NCI-H460 cell assessed as cell death at 50 nM after 12 hrs by Hoechst 33342/propidium iodide staining based fluorescence microscopy
NCI-H460 [3] = assay: Cytotoxicity against human NCI-H460 cell assessed as cell death at 100 nM after 12 hrs by Hoechst 33342/propidium iodide staining based fluorescence microscopy
NCI-H460 [4] = assay: Cytotoxicity against human NCI-H460 cell assessed as cell death at 500 nM after 12 hrs by Hoechst 33342/propidium iodide staining based fluorescence microscopy
NCI-H460 [5] = assay: Cytotoxicity against human NCI-H460 cell assessed as cell death at 1 uM after 12 hrs by Hoechst 33342/propidium iodide staining based fluorescence microscopy
NCI-H460 [6] = assay: Cytotoxicity against human NCI-H460 cells in serum free medium assessed as cell death at 10 uM after 12 hrs by Hoechst 33342/propidium iodide staining based fluorescence microscopy
NCI-H460 [7] = assay: Cytotoxicity against human NCI-H460 cell assessed as cell death at 100 uM after 12 hrs by Hoechst 33342/propidium iodide staining based fluorescence microscopy
NCI-H460 [8] = assay: Cytotoxicity against human NCI-H460 cell assessed as cell death after 12 hrs by Hoechst 33342/propidium iodide staining based fluorescence microscopy; conditions: NCI-H460, 12 h
NCI-H460 [9] = assay: Induction of apoptosis in human NCI-H460 cells in at 50 nM after 12 hrs by Hoechst 33342/propidium iodide staining based fluorescence microscopy
MOLT-4 = assay: Cytotoxicity against human MOLT4 cells after 48 hrs by sulforhodamine B assay; conditions: MOLT-4, 48 h
RPMI-8226 = assay: Cytotoxicity against human RPMI8226 cells after 48 hrs by sulforhodamine B assay; conditions: RPMI-8226, 48 h
SR = assay: Cytotoxicity against human SR cells after 48 hrs by sulforhodamine B assay
A549 = assay: Cytotoxicity against human A549 cells after 48 hrs by sulforhodamine B assay; conditions: A549, 48 h
EKVX = assay: Cytotoxicity against human EKVX cells after 48 hrs by sulforhodamine B assay
HOP-62 = assay: Cytotoxicity against human HOP62 cells after 48 hrs by sulforhodamine B assay; conditions: HOP-62, 48 h
HOP-92 = assay: Cytotoxicity against human HOP92 cells after 48 hrs by sulforhodamine B assay; conditions: HOP-92, 48 h
NCI-H226 = assay: Cytotoxicity against human NCI-H226 cells after 48 hrs by sulforhodamine B assay; conditions: NCI-H226, 48 h
NCI-H322M = assay: Cytotoxicity against human NCI-H322M cells after 48 hrs by sulforhodamine B assay
NCI-H460 [10] = assay: Cytotoxicity against human NCI-H460 cells after 48 hrs by sulforhodamine B assay; conditions: NCI-H460, 48 h
NCI-H522 = assay: Cytotoxicity against human NCI-H522 cells after 48 hrs by sulforhodamine B assay; conditions: NCI-H522, 48 h
COLO 205 = assay: Cytotoxicity against human COLO205 cells after 48 hrs by sulforhodamine B assay; conditions: COLO 205, 48 h
HCT-15 = assay: Cytotoxicity against human HCT15 cells after 48 hrs by sulforhodamine B assay; conditions: HCT-15, 48 h
HT-29 = assay: Cytotoxicity against human HT-29 cells after 48 hrs by sulforhodamine B assay; conditions: HT-29, 48 h
KM12 = assay: Cytotoxicity against human KM12 cells after 48 hrs by sulforhodamine B assay; conditions: KM12, 48 h
SW-620 = assay: Cytotoxicity against human SW620 cells after 48 hrs by sulforhodamine B assay; conditions: SW-620, 48 h
SF-268 = assay: Cytotoxicity against human SF268 cells after 48 hrs by sulforhodamine B assay; conditions: SF-268, 48 h
SF-295 = assay: Cytotoxicity against human SF295 cells after 48 hrs by sulforhodamine B assay; conditions: SF-295, 48 h
SF-539 = assay: Cytotoxicity against human SF539 cells after 48 hrs by sulforhodamine B assay; conditions: SF-539, 48 h
SNB-19 = assay: Cytotoxicity against human SNB19 cells after 48 hrs by sulforhodamine B assay; conditions: SNB-19, 48 h
SNB-75 = assay: Cytotoxicity against human SNB75 cells after 48 hrs by sulforhodamine B assay; conditions: SNB-75, 48 h
U-251 = assay: Cytotoxicity against human U251 cells after 48 hrs by sulforhodamine B assay; conditions: U-251, 48 h
PC-3 = assay: Cytotoxicity against human PC3 cells after 48 hrs by sulforhodamine B assay; conditions: PC-3, 48 h
DU-145 = assay: Cytotoxicity against human DU145 cells after 48 hrs by sulforhodamine B assay; conditions: DU-145, 48 h
LOX IMVI = assay: Cytotoxicity against human LOXIMVI cells after 48 hrs by sulforhodamine B assay
Malme-3M = assay: Cytotoxicity against human MALME-3M cells after 48 hrs by sulforhodamine B assay
M14 = assay: Cytotoxicity against human M14 cells after 48 hrs by sulforhodamine B assay; conditions: M14, 48 h
MDA-MB-435 = assay: Cytotoxicity against human MDA-MB-435 cells after 48 hrs by sulforhodamine B assay; conditions: MDA-MB-435, 48 h
SK-MEL-28 = assay: Cytotoxicity against human SK-MEL-28 cells after 48 hrs by sulforhodamine B assay; conditions: SK-MEL-28, 48 h
SK-MEL-5 = assay: Cytotoxicity against human SK-MEL-5 cells after 48 hrs by sulforhodamine B assay; conditions: SK-MEL-5, 48 h
UACC-257 = assay: Cytotoxicity against human UACC257 cells after 48 hrs by sulforhodamine B assay; conditions: UACC-257, 48 h
NCI-H23 = assay: Cytotoxicity against human NCI-H23 cells after 48 hrs by sulforhodamine B assay; conditions: NCI-H23, 48 h
UACC-62 = assay: Cytotoxicity against human UACC62 cells after 48 hrs by sulforhodamine B assay; conditions: UACC-62, 48 h
OVCAR-3 = assay: Cytotoxicity against human OVCAR3 cells after 48 hrs by sulforhodamine B assay; conditions: OVCAR-3, 48 h
OVCAR-4 = assay: Cytotoxicity against human OVCAR4 cells after 48 hrs by sulforhodamine B assay; conditions: OVCAR-4, 48 h
OVCAR-8 = assay: Cytotoxicity against human OVCAR8 cells after 48 hrs by sulforhodamine B assay; conditions: OVCAR-8, 48 h
SK-OV-3 = assay: Cytotoxicity against human SKOV3 cells after 48 hrs by sulforhodamine B assay; conditions: SK-OV-3, 48 h
786-0 = assay: Cytotoxicity against human 786-0 cells after 48 hrs by sulforhodamine B assay; conditions: 786-0, 48 h
A498 = assay: Cytotoxicity against human A498 cells after 48 hrs by sulforhodamine B assay; conditions: A498, 48 h
ACHN = assay: Cytotoxicity against human ACHN cells after 48 hrs by sulforhodamine B assay
SN12C = assay: Cytotoxicity against human SN12C cells after 48 hrs by sulforhodamine B assay
TK-10 = assay: Cytotoxicity against human TK10 cells after 48 hrs by sulforhodamine B assay; conditions: TK-10, 48 h
UO-31 = assay: Cytotoxicity against human UO31 cells after 48 hrs by sulforhodamine B assay; conditions: UO-31, 48 h
MCF7 = assay: Cytotoxicity against human MCF7 cells after 48 hrs by sulforhodamine B assay; conditions: MCF7, 48 h
MDA-MB-231 = assay: Cytotoxicity against human MDA-MB-231 cells after 48 hrs by sulforhodamine B assay; conditions: MDA-MB-231, 48 h
Hs-578T = assay: Cytotoxicity against human Hs578T cells after 48 hrs by sulforhodamine B assay
T47D = assay: Cytotoxicity against human T47D cells after 48 hrs by sulforhodamine B assay

SMILES: C[C@@H]1O[C@@H](O[C@H]2CC[C@@]3(C)[C@H](CC[C@@H]4[C@@H]3CC[C@]3(C)[C@@H](C5=CC(=O)OC5)CC[C@]43O)C2)CC[C@H]1O [RAMNODIGIN]
- Activity (NCI-H460 [1]): 15.1%
- Activity (NCI-H460 [2]): 53.65%
- Activity (NCI-H460 [3]): 87.28%
- Activity (NCI-H460 [4]): 100%
- Activity (NCI-H460 [5]): 100%
- Activity (NCI-H460 [6]): 100%
- Activity (NCI-H460 [7]): 100%
- IC50 (NCI-H460 [8]): 48 nM
- Activity (NCI-H460 [9]): 45.71%
- GI50 (MOLT-4): 2.57 nM
- GI50 (RPMI-8226): 23.5 nM
- GI50 (SR): 2.25 nM
- GI50 (A549): 1.56 nM
- GI50 (EKVX): 5.13 nM
- GI50 (HOP-62): 8.55 nM
- GI50 (HOP-92): 11.3 nM
- GI50 (NCI-H226): 19.3 nM
- GI50 (NCI-H322M): 7.78 nM
- GI50 (NCI-H460 [10]): 3.83 nM
- GI50 (NCI-H522): 9.38 nM
- GI50 (COLO 205): 29.6 nM
- GI50 (HCT-15): 20.5 nM
- GI50 (HT-29): 11.9 nM
- GI50 (KM12): 32.4 nM
- GI50 (SW-620): 11.1 nM
- GI50 (SF-268): 4.28 nM
- GI50 (SF-295): 10.4 nM
- GI50 (SF-539): 7.8 nM
- GI50 (SNB-19): 37.5 nM
- GI50 (SNB-75): 14.9 nM
- GI50 (U-251): 2.57 nM
- GI50 (PC-3): 9.55 nM
- GI50 (DU-145): 3.45 nM
- GI50 (LOX IMVI): 11.8 nM
- GI50 (Malme-3M): 18.3 nM
- GI50 (M14): 19.3 nM
- GI50 (MDA-MB-435): 27.7 nM
- GI50 (SK-MEL-28): 23.1 nM
- GI50 (SK-MEL-5): 5.44 nM
- GI50 (UACC-257): 19.6 nM
- GI50 (NCI-H23): 4.13 nM
- GI50 (UACC-62): 12.7 nM
- GI50 (OVCAR-3): 4.94 nM
- GI50 (OVCAR-4): 18.9 nM
- GI50 (OVCAR-8): 2.5 nM
- GI50 (SK-OV-3): 22.2 nM
- GI50 (786-0): 6.21 nM
- GI50 (A498): 20.7 nM
- GI50 (ACHN): 4.31 nM
- GI50 (SN12C): 3.61 nM
- GI50 (TK-10): 3.75 nM
- GI50 (UO-31): 5.15 nM
- GI50 (MCF7): 5.89 nM
- GI50 (MDA-MB-231): 33.9 nM
- GI50 (Hs-578T): 4.57 nM
- GI50 (T47D): 21 nM

SMILES: C[C@H]1O[C@H](O[C@H]2CC[C@@]3(C)[C@H](CC[C@@H]4[C@@H]3CC[C@]3(C)[C@@H](C5=CC(=O)OC5)CC[C@]43O)C2)CC[C@@H]1O
- Activity (NCI-H460 [1]): 16.63%
- Activity (NCI-H460 [2]): 19.63%
- Activity (NCI-H460 [3]): 24.88%
- Activity (NCI-H460 [4]): 58.34%
- Activity (NCI-H460 [5]): 89.05%
- Activity (NCI-H460 [6]): 100%
- Activity (NCI-H460 [7]): 100%
- IC50 (NCI-H460 [8]): 387 nM
- Activity (NCI-H460 [9]): 15.33%
- GI50 (MOLT-4): 35.3 nM
- GI50 (RPMI-8226): 117 nM
- GI50 (SR): 79.5 nM
- GI50 (A549): 30.6 nM
- GI50 (EKVX): 62.1 nM
- GI50 (HOP-62): 56.4 nM
- GI50 (HOP-92): 128 nM
- GI50 (NCI-H226): 168 nM
- GI50 (NCI-H322M): 106 nM
- GI50 (NCI-H460 [10]): 35.1 nM
- GI50 (NCI-H522): 40.8 nM
- GI50 (COLO 205): 348 nM
- GI50 (HCT-15): 116 nM
- GI50 (HT-29): 97 nM
- GI50 (KM12): 228 nM
- GI50 (SW-620): 52.6 nM
- GI50 (SF-268): 37.8 nM
- GI50 (SF-295): 71.6 nM
- GI50 (SF-539): 43.8 nM
- GI50 (SNB-19): 315 nM
- GI50 (SNB-75): 99 nM
- GI50 (U-251): 35.3 nM
- GI50 (PC-3): 101 nM
- GI50 (DU-145): 30.5 nM
- GI50 (LOX IMVI): 60.6 nM
- GI50 (Malme-3M): 182 nM
- GI50 (M14): 156 nM
- GI50 (MDA-MB-435): 115 nM
- GI50 (SK-MEL-28): 186 nM
- GI50 (SK-MEL-5): 37.1 nM
- GI50 (UACC-257): 157 nM
- GI50 (NCI-H23): 42.7 nM
- GI50 (UACC-62): 168 nM
- GI50 (OVCAR-3): 47.8 nM
- GI50 (OVCAR-4): 191 nM
- GI50 (OVCAR-8): 76.7 nM
- GI50 (SK-OV-3): 194 nM
- GI50 (786-0): 58.2 nM
- GI50 (A498): 131 nM
- GI50 (ACHN): 34.8 nM
- GI50 (SN12C): 40.9 nM
- GI50 (TK-10): 46.3 nM
- GI50 (UO-31): 57 nM
- GI50 (MCF7): 79.3 nM
- GI50 (MDA-MB-231): 392 nM
- GI50 (Hs-578T): 26.1 nM
- GI50 (T47D): 409 nM
